Data published in patent US10604555B2, “GIP derivatives and uses thereof” (priority 2018, dated 2020).
*1 amine or outer side, *2 acyl side, *3 side chain or, on linkers, in order; H or OH if unused. Where a SMILES comes first, the peptide text is derived from it. Side-chain parts run from the residue outwards. [ ]: non-standard residue; d: D form. The star is where a group is joined. C18 diacid = O=C(O)CCCCCCCCCCCCCCCCC(=O)*; γGlu = O=C(O)[C@H](CCC(=O)[*:2])N[*:1]; Nle = CCCC[C@H](N)C(=O)O; Aib = CC(C)(N)C(=O)O

Legend:
[1] = Pharmacokinetic study in minipigs, terminal half-life after i.v. administration; type: in vivo; conditions: female, Göttingen, minipig, plasma, iv, 5 nmol/kg; read-out: t1/2 (hours) harmonic mean (converted)
Method: This is done in a pharmacokinetic (PK) study, where the terminal half-life of the derivative in question is determined. By terminal half-life is generally meant the period of time it takes to halve a certain plasma concentration, measured after the initial distribution phase.
Female Göttingen minipigs were obtained from Ellegaard Göttingen Minipigs (Dalmose, Denmark) approximately 7-14 months of age and weighing from approximately 16-35 kg were used in the studies. The minipigs were housed individually and fed restrictedly once daily with SDS minipig diet (Special Diets Services, Essex, UK).
After at 3 weeks of acclimatisation two permanent central venous catheters were implanted in vena cava caudalis in each animal. The animals were allowed 1 week recovery after the surgery, and were then used for repeated pharmacokinetic studies with a suitable wash-out period between successive derivative dosing.
Blood samples (for example 0.8 ml) were collected in EDTA buffer (8 mM) and then centrifuged at 4° C. and 1942G for 10 minutes.
Individual plasma concentration-time profiles were analysed by a non-compartmental model in Phoenix WnNonLin ver. […] (Pharsight Inc., Mountain View, Calif., USA), and the resulting terminal half-lives (harmonic mean) determined.

human GIP receptor = biological target: T1, human GIP receptor (Homo sapiens, UniProt P48546); assay: In vitro potency (CRE luciferase; whole cells), BHK CRE luc2P hGIPR; type: cell-based; conditions: 0.2% HSA
T1 construct: expressed in transfected cells; host or cells: BHK (parent line BHKTS13), BHK CRE luc2P hGIPR clone #5
T1 sequence (P48546 22-466): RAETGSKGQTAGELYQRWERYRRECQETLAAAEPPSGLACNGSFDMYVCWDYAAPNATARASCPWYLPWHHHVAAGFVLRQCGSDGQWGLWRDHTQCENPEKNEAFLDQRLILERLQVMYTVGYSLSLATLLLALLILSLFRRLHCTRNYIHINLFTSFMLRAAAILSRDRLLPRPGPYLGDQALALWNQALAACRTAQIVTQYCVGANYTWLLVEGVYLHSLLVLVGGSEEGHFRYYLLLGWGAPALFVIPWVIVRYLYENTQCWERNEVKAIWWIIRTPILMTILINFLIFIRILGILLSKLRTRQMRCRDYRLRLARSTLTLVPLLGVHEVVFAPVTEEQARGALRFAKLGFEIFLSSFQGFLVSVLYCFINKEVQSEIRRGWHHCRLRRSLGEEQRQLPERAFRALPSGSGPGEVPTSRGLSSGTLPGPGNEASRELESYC
Procedure, shortened: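 BHK clones carrying a CRE luciferase element, each transfected with one human receptor, were seeded at 5000 cells/well overnight. Compounds were diluted in buffer with 1% ovalbumin and 0.1% Pluronic F-68, with or without human serum albumin. Luminescence was read after steadylite plus; non-linear log(agonist)-response fit, averaged over at least two replicates.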

SMILES: CCCC[C@H](NC(=O)[C@H](C)NC(=O)[C@@H](NC(=O)[C@H](CO)NC(=O)[C@H](Cc1ccc(O)cc1)NC(=O)[C@H](CC(=O)O)NC(=O)[C@H](CO)NC(=O)[C@@H](NC(=O)[C@H](Cc1ccccc1)NC(=O)[C@@H](NC(=O)CNC(=O)[C@H](CCC(=O)O)NC(=O)C(C)(C)NC(=O)[C@@H](N)Cc1ccc(O)cc1)[C@@H](C)O)[C@@H](C)CC)[C@@H](C)CC)C(=O)N[C@@H](CC(=O)O)C(=O)N[C@@H](CCCCN)C(=O)N[C@H](C(=O)N[C@@H](CCCNC(=N)N)C(=O)N[C@@H](CCC(N)=O)C(=O)NC(C)(C)C(=O)N[C@@H](CC(=O)O)C(=O)N[C@@H](Cc1ccccc1)C(=O)N[C@H](C(=O)N[C@@H](CCCCNC(=O)CC[C@H](NC(=O)CC[C@H](NC(=O)CC[C@H](NC(=O)CCCCCCCCCCCCCCCCC(=O)O)C(=O)O)C(=O)O)C(=O)O)C(=O)N[C@@H](Cc1c[nH]c2ccccc12)C(=O)N[C@@H](CC(C)C)C(=O)N[C@@H](CC(C)C)C(=O)N[C@@H](C)C(=O)N[C@@H](CCC(N)=O)C(=O)N[C@@H](CCCCN)C(=O)NCC(=O)O)C(C)C)[C@@H](C)CC [Compound 11, N{Epsilon-24}-[(4S)-4-carboxy-4-[[(4S)-4-carboxy-4-[[(4S)-4-carboxy-4-(17-carboxyheptadecanoylamino)butanoyl]amino]butanoyl]amino]butanoyl]-[Aib2,Nle14,Arg18,Aib20,Lys24]-hGIP(1-31)] (H-Y[Aib]EGTFISDYSIA[Nle]DKIRQ[Aib]DFVK([γGlu-γGlu-γGlu-C18 diacid])WLLAQKG-OH)
- half-life [1]: 89 h
- EC50 (human GIP receptor): 0.0094 nM

SMILES: CCCC[C@H](NC(=O)[C@H](C)NC(=O)[C@@H](NC(=O)[C@H](CO)NC(=O)[C@H](Cc1ccc(O)cc1)NC(=O)[C@H](CC(=O)O)NC(=O)[C@H](CO)NC(=O)[C@@H](NC(=O)[C@H](Cc1ccccc1)NC(=O)[C@@H](NC(=O)CNC(=O)[C@H](CCC(=O)O)NC(=O)[C@H](C)NC(=O)[C@@H](Cc1ccc(O)cc1)NC(C)=O)[C@@H](C)O)[C@@H](C)CC)[C@@H](C)CC)C(=O)N[C@@H](CC(=O)O)C(=O)N[C@@H](CCCCN)C(=O)N[C@H](C(=O)N[C@@H](CCCNC(=N)N)C(=O)N[C@@H](CCC(N)=O)C(=O)N[C@@H](CCC(N)=O)C(=O)N[C@@H](CC(=O)O)C(=O)N[C@@H](Cc1ccccc1)C(=O)N[C@H](C(=O)N[C@@H](CCCCNC(=O)COCCOCCNC(=O)COCCOCCNC(=O)CC[C@H](NC(=O)CCCCCCCCCCCCCCCCC(=O)O)C(=O)O)C(=O)N[C@@H](Cc1c[nH]c2ccccc12)C(=O)N[C@@H](CC(C)C)C(=O)N[C@@H](CC(C)C)C(=O)N[C@@H](C)C(=O)N[C@@H](CCC(N)=O)C(=O)N[C@@H](CCCCN)C(=O)NCC(=O)O)C(C)C)[C@@H](C)CC [Compound 15, N{1}-acetyl,N{Epsilon-24}-[2-[2-[2-[[2-[2-[2-[[(4S)-4-carboxy-4-(17-carboxyheptadecanoylamino)butanoyl]amino]ethoxy]ethoxy]acetyl]amino]ethoxy]ethoxy]acetyl]-[D-Tyr1,Nle14,Arg18,Lys24]-hGIP(1-31)]
- half-life [1]: 81 h
- EC50 (human GIP receptor): 0.0304 nM

SMILES: CCCC[C@H](NC(=O)[C@H](C)NC(=O)[C@@H](NC(=O)[C@H](CO)NC(=O)[C@H](Cc1ccc(O)cc1)NC(=O)[C@H](CC(=O)O)NC(=O)[C@H](CO)NC(=O)[C@@H](NC(=O)[C@H](Cc1ccccc1)NC(=O)[C@@H](NC(=O)CNC(=O)[C@H](CCC(=O)O)NC(=O)[C@H](C)NC(=O)[C@@H](Cc1ccc(O)cc1)NC(C)=O)[C@@H](C)O)[C@@H](C)CC)[C@@H](C)CC)C(=O)N[C@@H](CC(=O)O)C(=O)N[C@@H](CCCCN)C(=O)N[C@H](C(=O)N[C@@H](CCCNC(=N)N)C(=O)N[C@@H](CCC(N)=O)C(=O)N[C@@H](CCC(N)=O)C(=O)N[C@@H](CC(=O)O)C(=O)N[C@@H](Cc1ccccc1)C(=O)N[C@H](C(=O)N[C@@H](CCCCNC(=O)CC[C@H](NC(=O)CC[C@H](NC(=O)CC[C@H](NC(=O)CCCCCCCCCCCCCCCCC(=O)O)C(=O)O)C(=O)O)C(=O)O)C(=O)N[C@@H](Cc1c[nH]c2ccccc12)C(=O)N[C@@H](CC(C)C)C(=O)N[C@@H](CC(C)C)C(=O)N[C@@H](C)C(=O)N[C@@H](CCC(N)=O)C(=O)N[C@@H](CCCCN)C(=O)NCC(=O)O)C(C)C)[C@@H](C)CC [Compound 7, N{1}-acetyl, N{Epsilon-24}-[(4S)-4-carboxy-4-[[(4S)-4-carboxy-4-[[(4S)-4-carboxy-4-(17-carboxyheptadecanoylamino)butanoyl]amino]butanoyl]amino]butanoyl]-[D-Tyr1,Nle14,Arg18, Lys24]-hGIP(1-31)]
- half-life [1]: 84 h
- EC50 (human GIP receptor): 0.0489 nM

SMILES: CCCC[C@H](NC(=O)[C@H](C)NC(=O)[C@@H](NC(=O)[C@H](CO)NC(=O)[C@H](Cc1ccc(O)cc1)NC(=O)[C@H](CC(=O)O)NC(=O)[C@H](CO)NC(=O)[C@@H](NC(=O)[C@H](Cc1ccccc1)NC(=O)[C@@H](NC(=O)CNC(=O)[C@H](CCC(=O)O)NC(=O)[C@H](C)NC(=O)[C@@H](Cc1ccc(O)cc1)NC(C)=O)[C@@H](C)O)[C@@H](C)CC)[C@@H](C)CC)C(=O)N[C@@H](CC(=O)O)C(=O)N[C@@H](CCCCN)C(=O)N[C@H](C(=O)N[C@@H](CCCNC(=N)N)C(=O)N[C@@H](CCC(N)=O)C(=O)N[C@@H](CCC(N)=O)C(=O)N[C@@H](CC(=O)O)C(=O)N[C@@H](Cc1ccccc1)C(=O)N[C@H](C(=O)N[C@@H](CCCCNC(=O)COCCOCCNC(=O)COCCOCCNC(=O)CC[C@H](NC(=O)CC[C@H](NC(=O)CC[C@H](NC(=O)CCCCCCCCCCCCCCCCC(=O)O)C(=O)O)C(=O)O)C(=O)O)C(=O)N[C@@H](Cc1c[nH]c2ccccc12)C(=O)N[C@@H](CC(C)C)C(=O)N[C@@H](CC(C)C)C(=O)N[C@@H](C)C(=O)N[C@@H](CCC(N)=O)C(=O)N[C@@H](CCCCN)C(=O)NCC(=O)O)C(C)C)[C@@H](C)CC [Compound 17, N{1}-acetyl,N{Epsilon-24}-[2-[2-[2-[[2-[2-[2-[[(4S)-4-carboxy-4-[[(4S)-4-carboxy-4-[[(4S)-4-carboxy-4-(17-carboxyheptadecanoylamino)butanoyl]amino]butanoyl]amino]-butanoyl]amino]ethoxy]ethoxy]acetyl]amino]ethoxy]ethoxy]acetyl]-[D-Tyr1,Nle14,Arg18,Lys24]-hGIP(1-31)]
- half-life [1]: 88 h
- EC50 (human GIP receptor): 0.0431 nM
